Reference: US8114902B2, “2-aminobutanol compound and use thereof for medical purposes” (Mitsubishi Tanabe Pharma Corporation, priority 2006, dated 2012)

Legend:
[1] = test system: mouse peripheral blood lymphocyte count; test: Evaluation of mouse peripheral blood lymphocyte count-decreasing effect; format: in vivo, male BALB/cAnNCrj mice; details: intraperitoneal administration in 20% cyclodextrin, blood collected 24 hr after administration, flow cytometer count
Protocol: Evaluation of Mouse Peripheral Blood Lymphocyte Count-Decreasing Effect
The compound of the present invention was dissolved or suspended in 20% cyclodextrin (manufactured by NIHON SHOKUHIN KAKO CO., LTD.), and intraperitoneally administered to 7- to 10-week-old male BALB/cAnNCrj mice (Charles River Laboratories Japan, Inc.) at a dose of 0.001-10 mg/kg body weight. At 24 hr after the administration of the compound of the present invention, the peripheral blood (about 0.3 ml) was collected using a tuberculin syringe (manufactured by TERUMO CORPORATION) treated with heparin sodium (manufactured by NovoNordisk) from the postcava of the mice under ether anesthesia. The blood (0.1 ml) was hemolyzed in an automatic hemolysis treatment apparatus (TQ-Prep, manufactured by Beckman Instruments•Coulter) and, using a Flow Cytometer (CYTOMICS FC 500, manufactured by Beckman Instruments•Coulter), the lymphocytes were counted by a gating method using the forward and side scattering of the laser beam as an index and Flow-Count™ Fluorospheres (manufactured by Beckman Instruments•Coulter), which are the standard particles in a known number, as the internal standard. Taking the lymphocyte count of the vehicle group as 100%, the dose necessary for decreasing the lymphocyte count thereof to 50% was calculated and taken as ED50 value (mg/kg body weight).

[2] = Action on heart rate in rat telemetry; format: in vivo, male Sprague-Dawley (IGS) rats; details: oral administration in 0.5% hydroxypropylmethylcellulose, up to the dose of 10 mg/kg body weight, heart rate measured from 24 hr before to 72 hr after administration
Protocol: Action on Heart Rate in Rat Telemetry
Male Sprague-Dawley (IGS) rats were anesthetized by intraperitoneal administration of Nembutal (manufactured by DAINIPPON PHARMACEUTICAL CO., LTD.), and a pressure sensor connected to a telemetric transmitter (TL11M2-C50-PTX, manufactured by Data Sciences International) was inserted into the abdominal artery, whereby the transmitter was subcutaneously set in the abdomen. The data of blood pressure and heart rate were recorded by an analysis software (Dataquest A.R.T., Data Sciences International) via a receiver (RPC-1, manufactured by Data Sciences International). After confirmation of the recovery of the circadian rhythm of the heart rate after elapse of 10 days to 2 weeks postoperation, the rats were subjected to the experiment. The compound of the present invention was suspended in 0.5% hydroxypropylmethylcellulose (manufactured by Shin-Etsu Chemical Co., Ltd.) and administered orally. The heart rate was measured from 24 hr before administration to 72 hr after administration.

| SMILES | mouse peripheral blood lymphocyte count-decreasing effect, ED50 value (dose necessary for decreasing the lymphocyte count to 50% of vehicle group) [1] [mg/kg body weight] | influence on heart rate in rats (telemetry) [2] |
| --- | --- | --- |
| Cc1ccc(Sc2ccc(-c3ccc(CCC(N)(CO)CO)cc3)c(F)c2)cc1 [Example 4, 2-amino-2-{2-[2′-fluoro-4′-(4-methylphenylthio)biphenyl-4-yl]ethyl}propane-1,3-diol] | 0.05 | did not influence the heart rate |
| Cc1ccc(Sc2ccc(-c3ccc(CCC(N)(CO)CO)c(Cl)c3)c(F)c2)cc1 [Example 18, 2-amino-2-{2-[3-chloro-2′-fluoro-4′-(4-methylphenylthio)biphenyl-4-yl]ethyl}propane-1,3-diol] | 0.04 | – |
